Measured values: patent publication US20110126300A1, “High Through-Put Method of Screening Compounds for Pharmacological Activity” (priority 2005, published 2011)

How the values were obtained:
[1] = tested on: wild type zebrafish larvae; test: PTZ-induced seizure assay in larvae; assay type: in vivo; details: PTZ 15 uM, 4 day post-fertilization wild type larvae
Method: To assay small molecule compounds with anti-seizure activity, 4 day post-fertilization wild type zebrafish were placed in 96-well plates (5 larvae per well) and incubated in the test compounds (20 uM) as above, for either 2 or 12 hrs. Subsequently, the larvae were administered pentylenetetrazole (PTZ; 15 uM) and observed for seizure activity (i.e., a change in phenotype). […] This activity persists for approximately 20 minutes and then culminates in a tonic convulsion that abolishes movement and normal posture. Prior to or after onset of the seizure activity, the small molecule test compound was administered to the larvae and the response of the fish assessed visually or by digital recording.
Scoring was based upon whether the test compound was able to inhibit or modify the seizure activity of the larvae.

[2] = tested on: wild type zebrafish larvae; test: Wild type larvae exposed to compound, PED6 imaging of intestine contour; assay type: in vivo, zebrafish (Danio rerio); details: 6 dpf wild type larvae, 2 hour exposure to PED6; FIG. 2B
Method: FIGS. 2A-2D photographically show lateral fluorescent images of 6 dpf zebrafish larvae following 2 hour exposure to fluorescent lipid PED6.
For rescue experiments, 1-cell stage embryos derived from pair-wise mating of heterozygous mlt carriers were injected with either the MT-mmpa, morpholino alone or in combination with the β4 integrin morpholino. Subsequently, all embryos were injected with either 0.375 or 0.1875 pg of tissue inhibitor of metalloproteinases 2 (TIMP2 inhibitor) (PF021; Oncogene Research Products, now Calbiochem, San Diego, Calif.) at 48 hpf. Alternatively, 2.5 dpf or 3 dpf larvae were incubated in the TGF-β Type I receptor inhibitor SB 431542, 100 μM in embryo media. Morpholino sequences were as identified in Wallace et al., supra, 2005b for smooth muscle myosin heavy chain, β4 integrin, and MT-mmpa.

[3] = tested on: meltdown (mlt) mutant larvae; test: Rescue of the mlt mutant phenotype by compound exposure, read out with fluorescent lipid PED6 in the posterior intestine; assay type: in vivo, zebrafish (Danio rerio)
Method: For testing, the embryos were then cultured in the presence of the test compound(s) overnight or up to 96 hrs at 28.5° C., for example, in 96-well plates. Mutant larvae and mutants reared in the presence of small molecule compounds may be bathed in the fluorescent lipid PED6 or fluorescent microspheres, which outline the digestive tract lumen and can be seen by visual inspection or by a commercially-available fluorescent plate scanner, typically by 96-120 hours post fertilization (hpf). Although signals that regulate regional epithelial differentiation and renewal are poorly understood, in meltdown (mlt), the posterior gut is disorganized and bears an expanded mesenchyme (Briggs, Am. J. Physiol. Regulatory Integrative Comp. Physiol. 282: R3-9 (2002)). Neither fluorescent marker enters the posterior intestine of mlt mutants because the intestinal lumen is obstructed by the massive cysts that form in all mlt mutant larvae.
No effect: A test compound was considered to have no effect if none of the mlt mutant larvae show fluorescent lipid in the posterior intestine.
When no mutants were observed, one possibility was that the test compound produced a complete rescue of the mutant phenotype. The other possibility was that there were never any mutants present in the well. When embryos derived from matings of heterozygous mlt/+ fish are used for these assays, then with 8-10 embryos per test compound, the latter possibility may be calculated to occur with a frequency of 0.01%.
Partial rescue: Partial rescue was considered when mutants or the mutant phenotype was present, but the fluorescent markers were present in the posterior intestine.
In the present assays, mosaic zebrafish were generated in which homozygous mlt/mlt cells have replaced the native germline of wild type fish. 100% of the offspring derived from pair wise matings of such modified zebrafish are homozygous for the mlt mutation. Thus, all of the larvae placed in each well of the 96-well plate are mlt mutants, greatly enhancing the efficiency of each assay. […]

SMILES	duration of seizure activity before tonic convulsion [1]	intestine contour in wild type larvae [2]	posterior intestinal PED6 fluorescence and intestine contour in mlt larvae ([3]; 6 dpf mlt larvae, 2 hour exposure to PED6, FIG. 2D)	rescue of the mlt mutant phenotype (fluorescent lipid in posterior intestine) ([3]; compound added ~60 hpf, PED6 at 96 hpf, imaged at 120 hpf)	intestinal cysts versus untreated mlt larvae ([3]; mlt larvae scored at 5 dpf, treated at 2.5 dpf or 3 dpf, 100 μM in embryo media)
C1CCc2nnnn2CC1 [PTZ, pentylenetetrazole]	approximately 20 minutes				
NC(=O)c1ccc(-c2nc(-c3ccc4c(c3)OCO4)c(-c3ccccn3)[nH]2)cc1 [SB431542]		normal intestine contour	posterior intestinal fluorescence and the contour is normal	rescuing the mutant phenotype	far fewer cysts than untreated mlt larvae
